Source: US20130338130A1 (priority 2009, published 2013)
Like-named read-outs stand apart in the source and are kept apart here.

Test system: ATCC strain 43300 Staphylococcus aureus
Conditions: for recovery after enrichment in Mueller-Hinton broth: 1 cfu detection limit
Method: Additional antibiotic was added every 24 hours. The growth periods tested were 24 (see FIG. 4), 48, 72, 96 and 120 hours.
USP<51> Antimicrobial Effectiveness protocol was used as the template experimental paradigm. […] All concentrations were plated out to the 10^−7 dilutions to ascertain cfu/ml. […] Additional antibiotic was added at the initial concentration every 24 hours.
ATCC strain 43300 Staphylococcus aureus was streaked out for isolations. An isolated colony was chosen, streaked again and incubated. Isolate was chosen and then diluted to a McFarland standard of one. The estimated value was then taken to inoculate tubes containing growth media and 12, 30 or 60 μg/ml oxacillin with approximately 10^5 cfu/ml. These tubes were incubated and plated for counting cfu. A clone having no observed log reduction in cfu was selected for the rest of the experiment.
Material was calculated on a 10 ml volume. Sterile oxacillin was added to each experimental condition to a final concentration of 12, 30 or 60 μg/ml antibiotic.
All tubes were then inoculated with a dilution of the selected ATCC strain 43300 Staphylococcus aureus clone giving a final level of colony forming units of 3.3×10^5/ml (log=5.52). The tubes were incubated at 25° C. and mixed periodically. Antibiotic was re-inoculated every 24 hours at the initial concentration to maintain pressure on the organism. Plating was done at 24, 48, 72, and 120 hours. Each condition was plated by diluting 1 ml of growth material into 9 ml of MLB diluent broth. […] This mixture was serial diluted down to 10^−7 with 1 ml placed in triplicate in a sterile petri dish at each dilution point. 20 mls of TSA was added to each dilution, swirled and allowed to solidify. All dilutions were placed in a 35° C. incubator for 24 to 72 hours. Bacterial colonies on each plate were counted and the average taken then changed into log format. Any cfu/ml observed greater than 3.3×10^5 (log=5.5) were recorded as >3.3×10^5.
The tube was then taken out of the experiment and tested for ATCC strain 43300 Staphylococcus growth. The tube was spun down at 5000 rpm for 10 minutes. The supernatant was then decanted into 90 mls of Mueller-Hinton broth with 6 μg/ml oxacillin. This is for enrichment and the recovery of any MRSA cells that may be present whether healthy or stressed. The pellet had 10 mls Mueller-Hinton broth with 6 μg/ml oxacillin added to it to recover any cells that may be present. Both vessels were incubated at 35° C. for 48 hours followed by plating every 24 hours. Each vessel was plated at 10 dilutions to obtain a 1 cfu detection limit.

CS(C)(=O)=O [MSM, Methylsulfonylmethane]
survival, Average Log (30 μg/ml oxacillin + MSM (% in label), 24 hours, listed as 8% MSM): 3.07 Log | survival, Average Log (30 μg/ml oxacillin + MSM (% in label), 24 hours, listed as 9% MSM): 3.01 Log | survival, Average Log (30 μg/ml oxacillin + MSM (% in label), 24 hours, listed as 10% MSM): 3.32 Log | survival, Average Log (30 μg/ml oxacillin + MSM (% in label), 24 hours, listed as 11% MSM): 3.57 Log | survival, Average Log (30 μg/ml oxacillin + MSM (% in label), 24 hours, listed as 12% MSM): 3.59 Log | survival, Average Log (30 μg/ml oxacillin + MSM (% in label), 24 hours, listed as 13% MSM): 3.62 Log | survival, Average Log (30 μg/ml oxacillin + MSM (% in label), 24 hours, listed as 14% MSM): 3.78 Log | survival, Average Log (30 μg/ml oxacillin + MSM (% in label), 24 hours, listed as 15% MSM): 3.94 Log | survival, Average Log (30 μg/ml oxacillin + MSM (% in label), 24 hours, listed as 16% MSM): 3.91 Log | survival, Average Log (30 μg/ml oxacillin + MSM (% in label), 48 hours, listed as 5% MSM): 3.8 Log | survival, Average Log (30 μg/ml oxacillin + MSM (% in label), 48 hours, listed as 6% MSM): 3.7 Log | survival, Average Log (30 μg/ml oxacillin + MSM (% in label), 48 hours, listed as 7% MSM): 2.3 Log | survival, Average Log (30 μg/ml oxacillin + MSM (% in label), 48 hours, listed as 8% MSM): 3.1 Log | survival, Average Log (30 μg/ml oxacillin + MSM (% in label), 48 hours, listed as 9% MSM): 2.4 Log | survival, Average Log (30 μg/ml oxacillin + MSM (% in label), 48 hours, listed as 10% MSM): 2.6 Log | survival, Average Log (30 μg/ml oxacillin + MSM (% in label), 48 hours, listed as 11% MSM): 2.4 Log | survival, Average Log (30 μg/ml oxacillin + MSM (% in label), 48 hours, listed as 12% MSM): 2.6 Log | survival, Average Log (30 μg/ml oxacillin + MSM (% in label), 48 hours, listed as 13% MSM): 2.5 Log | survival, Average Log (30 μg/ml oxacillin + MSM (% in label), 48 hours, listed as 14% MSM): 2.5 Log | survival, Average Log (30 μg/ml oxacillin + MSM (% in label), 48 hours, listed as 15% MSM): 2.8 Log | survival, Average Log (30 μg/ml oxacillin + MSM (% in label), 48 hours, listed as 16% MSM): 2.6 Log | survival, Average Log (30 μg/ml oxacillin + MSM (% in label), 72 hours, listed as 5% MSM): 5.5 Log | survival, Average Log (30 μg/ml oxacillin + MSM (% in label), 72 hours, listed as 6% MSM): 5.5 Log | survival, Average Log (30 μg/ml oxacillin + MSM (% in label), 72 hours, listed as 7% MSM): 4.5 Log | survival, Average Log (30 μg/ml oxacillin + MSM (% in label), 72 hours, listed as 8% MSM): 5.5 Log | survival, Average Log (30 μg/ml oxacillin + MSM (% in label), 72 hours, listed as 9% MSM): 2.9 Log | survival, Average Log (30 μg/ml oxacillin + MSM (% in label), 72 hours, listed as 10% MSM): 3.9 Log | survival, Average Log (30 μg/ml oxacillin + MSM (% in label), 72 hours, listed as 11% MSM): 3.2 Log | survival, Average Log (30 μg/ml oxacillin + MSM (% in label), 72 hours, listed as 12% MSM): 2.6 Log | survival, Average Log (30 μg/ml oxacillin + MSM (% in label), 72 hours, listed as 13% MSM): 1.8 Log | survival, Average Log (30 μg/ml oxacillin + MSM (% in label), 72 hours, listed as 14% MSM): 2.2 Log | survival, Average Log (30 μg/ml oxacillin + MSM (% in label), 72 hours, listed as 15% MSM): 2.4 Log | survival, Average Log (30 μg/ml oxacillin + MSM (% in label), 72 hours, listed as 16% MSM): 1.9 Log | recovery after enrichment in Mueller-Hinton broth (30 μg/ml oxacillin, 120 hours): total kill | survival, Average Log (60 μg/ml oxacillin + MSM (% in label), 24 hours, listed as 5% MSM): 2.54 Log | survival, Average Log (60 μg/ml oxacillin + MSM (% in label), 24 hours, listed as 6% MSM): 2.38 Log | survival, Average Log (60 μg/ml oxacillin + MSM (% in label), 24 hours, listed as 7% MSM): 2.34 Log | survival, Average Log (60 μg/ml oxacillin + MSM (% in label), 24 hours, listed as 8% MSM): 2.67 Log | survival, Average Log (60 μg/ml oxacillin + MSM (% in label), 24 hours, listed as 9% MSM): 2.50 Log | survival, Average Log (60 μg/ml oxacillin + MSM (% in label), 24 hours, listed as 10% MSM): 2.63 Log | survival, Average Log (60 μg/ml oxacillin + MSM (% in label), 24 hours, listed as 11% MSM): 2.83 Log | survival, Average Log (60 μg/ml oxacillin + MSM (% in label), 24 hours, listed as 12% MSM): 2.86 Log | survival, Average Log (60 μg/ml oxacillin + MSM (% in label), 24 hours, listed as 13% MSM): 2.80 Log | survival, Average Log (60 μg/ml oxacillin + MSM (% in label), 24 hours, listed as 14% MSM): 2.03 Log | survival, Average Log (60 μg/ml oxacillin + MSM (% in label), 24 hours, listed as 15% MSM): 3.81 Log | survival, Average Log (60 μg/ml oxacillin + MSM (% in label), 24 hours, listed as 16% MSM): 3.83 Log | survival, Average Log (60 μg/ml oxacillin + MSM (% in label), 48 hours, listed as 5% MSM): 3.5 Log | survival, Average Log (60 μg/ml oxacillin + MSM (% in label), 48 hours, listed as 6% MSM): 1.8 Log | survival, Average Log (60 μg/ml oxacillin + MSM (% in label), 48 hours, listed as 7% MSM): 4.0 Log | survival, Average Log (60 μg/ml oxacillin + MSM (% in label), 48 hours, listed as 8% MSM): 2.8 Log | survival, Average Log (60 μg/ml oxacillin + MSM (% in label), 48 hours, listed as 9% MSM): 2.2 Log | survival, Average Log (60 μg/ml oxacillin + MSM (% in label), 48 hours, listed as 10% MSM): 2.2 Log | survival, Average Log (60 μg/ml oxacillin + MSM (% in label), 48 hours, listed as 11% MSM): 2.1 Log | survival, Average Log (60 μg/ml oxacillin + MSM (% in label), 48 hours, listed as 12% MSM): 2.0 Log | survival, Average Log (60 μg/ml oxacillin + MSM (% in label), 48 hours, listed as 13% MSM): 1.7 Log | survival, Average Log (60 μg/ml oxacillin + MSM (% in label), 48 hours, listed as 14% MSM): 2.2 Log | survival, Average Log (60 μg/ml oxacillin + MSM (% in label), 48 hours, listed as 15% MSM): 2.1 Log | survival, Average Log (60 μg/ml oxacillin + MSM (% in label), 48 hours, listed as 16% MSM): 1.9 Log | survival, Average Log (60 μg/ml oxacillin + MSM (% in label), 72 hours, listed as 11% MSM): 1 Log | survival, Average Log (60 μg/ml oxacillin + MSM (% in label), 72 hours, listed as 12% MSM): 2.4 Log | survival, Average Log (60 μg/ml oxacillin + MSM (% in label), 72 hours, listed as 13% MSM): 1 Log | survival, Average Log (60 μg/ml oxacillin + MSM (% in label), 72 hours, listed as 14% MSM): 1.5 Log | survival, Average Log (60 μg/ml oxacillin + MSM (% in label), 72 hours, listed as 16% MSM): 1.8 Log | log reduction in the number of cfu/ml (60 μg/ml oxacillin, 24 hours): 3.5 log | recovery after enrichment in Mueller-Hinton broth (60 μg/ml oxacillin, 72 hours): total kill | recovery after enrichment in Mueller-Hinton broth (60 μg/ml oxacillin, 96 hours): total kill | recovery after enrichment in Mueller-Hinton broth (60 μg/ml oxacillin, 120 hours): total kill | growth (positive 5%, 10%, and 16% MSM controls, no antibiotic, 24 hours): signs of turbid growth
